Results as given in the supplement of paper PMC5579334.
± gives the standard deviation of the averaged measurements.

Experiments:
[1] = test system: HS-PSS; test: drug sensitivity score (DSS, CellTiter-Glo viability, 72 h) (DSS (dimensionless)); higher = more sensitive; extreme values may be limits of the assay
How it was run: (§1)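 MPNST cell lines and primary human Schwann cells (750–1000 cells per well) went into 384-well plates preprinted with each compound at five concentrations in 10-fold steps. Plates were incubated 72 h at 37 °C, 5% CO2. Viability was read as CellTiter-Glo ATP luminescence, scaled between vehicle and positive-control wells, with duplicates averaged where present. Percent inhibition is at the top concentration; drug sensitivity score and relative IC50 (censored at top concentration) come from four-parameter logistic fits.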

[2] = test system: HS-Sch-2; test: as above
How it was run: as §1

[3] = test system: HSC1 (primary human Schwann cells); test: as above
How it was run: as §1

[4] = test system: HSC2 (primary human Schwann cells); test: as above
How it was run: as §1

[5] = test system: S1507-2; test: as above
How it was run: as §1

[6] = test system: S462; test: as above
How it was run: as §1

[7] = test system: ST8814; test: as above
How it was run: as §1

[8] = test system: STS26T; test: as above
How it was run: as §1

[9] = test system: YST-1; test: as above
How it was run: as §1

[10] = test system: HS-PSS; test: drug sensitivity score (DSS, CellTox-Green cytotoxicity, 72 h) (DSS (dimensionless)); higher = more cytotoxic; extreme values may be limits of the assay
How it was run: (§2)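 MPNST cell lines and primary human Schwann cells were incubated 72 h at 37 °C in 384-well plates holding five 10-fold compound dilutions. CellTox-Green was added before seeding at a final 1:1000 dilution and reported fluorescence from DNA released by disrupted cells. Signals were scaled to vehicle and positive-control wells, and cultures failing plate quality control were dropped. Drug sensitivity score and relative IC50 come from four-parameter logistic fits, with IC50 censored at the top concentration.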

[11] = test system: HSC1 (primary human Schwann cells); test: as above
How it was run: as §2

[12] = test system: HSC2 (primary human Schwann cells); test: as above
How it was run: as §2

[13] = test system: S1507-2; test: as above
How it was run: as §2

[14] = test system: ST8814; test: as above
How it was run: as §2

[15] = test system: STS26T; test: as above
How it was run: as §2

[16] = test system: HS-PSS; test: % inhibition of CellTiter-Glo viability at highest tested concentration (72 h), relative to DMSO and benzethonium chloride controls; higher = more inhibition
How it was run: as §1

[17] = test system: HS-Sch-2; test: as above
How it was run: as §1

[18] = test system: HSC1 (primary human Schwann cells); test: as above
How it was run: as §1

[19] = test system: HSC2 (primary human Schwann cells); test: as above
How it was run: as §1

[20] = test system: S1507-2; test: as above
How it was run: as §1

[21] = test system: S462; test: as above
How it was run: as §1

[22] = test system: ST8814; test: as above
How it was run: as §1

[23] = test system: STS26T; test: as above
How it was run: as §1

[24] = test system: YST-1; test: as above
How it was run: as §1

Row | Structure (SMILES) | drug sensitivity score [1] | drug sensitivity score [2] | drug sensitivity score [3] | drug sensitivity score [4] | drug sensitivity score [5] | drug sensitivity score [6] | drug sensitivity score [7] | drug sensitivity score [8] | drug sensitivity score [9] | drug sensitivity score [10] | drug sensitivity score [11] | drug sensitivity score [12] | drug sensitivity score [13] | drug sensitivity score [14] | drug sensitivity score [15] | % inhibition [16] | % inhibition [17] | % inhibition [18] | % inhibition [19] | % inhibition [20] | % inhibition [21] | % inhibition [22] | % inhibition [23] | % inhibition [24]
1 | C=C1C[C@@H]2[C@H](CC[C@]3(C)C(=O)CC[C@@H]23)[C@@]2(C)C=CC(=O)C=C12 [Exemestane] (max concentration tested 10000 nM) | 1.87 | 0.78 | 0 | 0 | 0.225 ± 0.26 | 0.804 ± 0.28 | 0 | 0 | 0 | 0 | 0 | 0 | 0 | 0 | 0 | 26.7% | 22.9% | 3.19% | 6.18% | 12 ± 1.6% | 22.1 ± 2% | 5.32% | 9.39% | -11.7%
2 | Cc1nc(C(=O)NCC(=O)O)c(O)c2ccc(Oc3ccccc3)cc12 [FG-4592] (max concentration tested 10000 nM) | 5.17 | 5.13 | 0.0901 | 0.0248 | 0 | 0 | 0 | 0 | 0 | 0 | 0 | 0 | 0 | 0 | 0 | 49% | 74.7% | 13.3% | 12.3% | -0.77 ± 1.2% | -7 ± 5.2% | 7.03% | 0.0946% | -7.68%
3 | O=S(=O)(c1cccc2cnccc12)N1CCCNCC1 [Fasudil] (max concentration tested 50000 nM) | 1.83 | 3.75 | 1.41 | 1.36 | 1.02 ± 0.16 | 3.84 ± 0.63 | 0.609 | 2.86 | 2.59 | 0.2 | 0.888 | 0 | 0 | 0 | 0.899 | 45.6% | 71.5% | 27.6% | 31.8% | 30.5 ± 1.5% | 70.6 ± 9.4% | 22.3% | 58.9% | 51%
4 | CC(C)(C)NC(=O)[C@H]1CC[C@H]2[C@@H]3CC[C@H]4NC(=O)C=C[C@]4(C)[C@H]3CC[C@]12C [Finasteride] (max concentration tested 10000 nM) | 0 | 0 | 0 | 0 | 0 | 0 | 0 | 0 | 0 | 0 | 0 | 0 | 0.774 ± 1.1 | 0 | 0 | 4.42% | 8.19% | 0.189% | 0.769% | -1.69 ± 4.2% | 2.86 ± 8.6% | 6.23% | 9.35% | 2.29%
5 | CCCCCCCCc1ccc(CCC(N)(CO)CO)cc1 [Fingolimod] (max concentration tested 10000 nM) | 8.31 | 6.87 | 7.62 | 7.17 | 7.98 ± 1 | 5.79 ± 0.46 | 6.27 | 6.58 | 5.97 | 5.38 | 8.13 | 7.44 | 13.3 ± 9.3 | 5.09 | 4.94 | 101% | 101% | 103% | 101% | 103 ± 2.5% | 101.6 ± 0.59% | 103% | 102% | 101%
6 | O=c1[nH]c(=O)n([C@H]2C[C@H](O)[C@@H](CO)O2)cc1F [Floxuridine] (max concentration tested 10000 nM) | 2.58 | 17.9 | 6.07 | 10.6 | 5.09 ± 3.2 | 22.4 ± 2.9 | 12.5 | 21.5 | 14.7 | 0 | 1.27 | 0.287 | 0 | 2.95 | 7.21 | 30.7% | 84.7% | 53.1% | 53.8% | 31.3 ± 10% | 84.1 ± 3.6% | 57.8% | 77.3% | 68.3%
7 | Nc1nc(F)nc2c1ncn2[C@@H]1O[C@H](CO)[C@@H](O)[C@@H]1O [Fludarabine] (max concentration tested 10000 nM) | 2.18 | 2.33 | 0.98 | 2.94 | 0.851 ± 1.2 | 0.582 ± 0.72 | 0 | 2.39 | 3.5 | 0 | 0 | 0 | 0 | 0 | 0 | 24.9% | 35% | 27.8% | 48.6% | 17.2 ± 10% | 20 ± 11% | 1.25% | 31.6% | 69.7%
8 | O=c1[nH]cc(F)c(=O)[nH]1 [Fluorouracil] (max concentration tested 10000 nM) | 1.09 | 1.83 | 1.94 | 2.86 | 0.493 ± 0.7 | 0.808 ± 0.45 | 0 | 6.56 | 0.94 | 0 | 0 | 0 | 0 | 0 | 0 | 29.4% | 35% | 43.5% | 55.5% | 11 ± 7.6% | 27.2 ± 7% | 4.62% | 53.4% | 25.5%
9 | CC(C)C(=O)Nc1ccc([N+](=O)[O-])c(C(F)(F)F)c1 [Flutamide] (max concentration tested 10000 nM) | 0 | 0 | 0 | 0 | 0 | 0 | 0 | 0 | 0 | 0 | 0 | 0 | 0 | 0 | 0 | 10.5% | -3.98% | 9.44% | 5.2% | 4.01 ± 0.74% | 5.56 ± 0.56% | 4.3% | 9.3% | -0.22%
10 | COc1cc2c(Oc3ccc(NC(=O)C4(C(=O)Nc5ccc(F)cc5)CC4)cc3F)ccnc2cc1OCCCN1CCOCC1 [Foretinib] (max concentration tested 1000 nM) | 1.41 | 1.15 | 3.91 | 3.44 | 5.7 ± 0.45 | 3.22 ± 0.43 | 6.43 | 3.62 | 3.16 | 0.08 | 0 | 0 | 1.26 ± 0.61 | 2.96 | 4.03 | 20.9% | 31.7% | 56.5% | 53.2% | 58.7 ± 5.1% | 50.2 ± 3% | 67.5% | 48.4% | 52.2%
11 | C[C@]12CC[C@@H]3c4ccc(O)cc4C[C@@H](CCCCCCCCC[S+]([O-])CCCC(F)(F)C(F)(F)F)[C@H]3[C@@H]1CC[C@@H]2O (stereo partly specified) [Fulvestrant] (max concentration tested 1000 nM) | 0 | 0 | 0.178 | 0.538 | 0 | 0 | 0 | 0 | 0 | 0 | 0 | 0 | 1.33 ± 1.9 | 0 | 0 | 10.3% | 8.02% | 11.4% | 18.2% | -11.9 ± 2.2% | 6.51 ± 4.8% | -2.59% | 4.69% | 1.11%
12 | CCCc1cc(C)[nH]c(=O)c1CNC(=O)c1cc(-c2ccnc(N3CCN(C)CC3)c2)cc2c1cnn2C(C)C [GSK343] (max concentration tested 10000 nM) | 5.59 | 4.46 | 4.34 | 2.64 | 5.498 ± 0.026 | 2.58 ± 1.2 | 5.22 | 3.88 | 1.05 | 5.71 | 0 | 0 | 6.1 ± 1.5 | 5.69 | 6.48 | 94.3% | 95.9% | 47% | 34.4% | 86 ± 10% | 49.6 ± 14% | 94.4% | 84.1% | 33.9%
13 | CCOC(=O)CCNc1cc(N2CCc3ccccc3CC2)nc(-c2ccccn2)n1 [GSK-J4] (max concentration tested 100000 nM) | 14.4 | 15.9 | 14.8 | 15.2 | 13.4 ± 0.92 | 16.3 ± 0.36 | 14.1 | 14.6 | 16.3 | 4.79 | 7.1 | 7.09 | 3.11 ± 4.4 | 6.13 | 8.17 | 99.4% | 99% | 95.8% | 96.5% | 97.2 ± 1.9% | 95.2 ± 0.48% | 97.1% | 96.1% | 100%
14 | Cc1cccc(-c2nn3c(c2-c2ccnc4ccc(C(N)=O)cc24)CCC3)n1 [Galunisertib] (max concentration tested 1000 nM) | 0 | 0 | 0 | 0 | 0 | 0.00835 ± 0.012 | 0 | 0.276 | 0 | 0 | 0 | 0 | 0.0896 ± 0.13 | 0 | 0 | 3.21% | -22% | 6.58% | 10.8% | 9.64 ± 5.1% | 5.62 ± 8.5% | -1.47% | 12.7% | -12.1%
